Measurements reported in ChEMBL document CHEMBL5136963 (RSC Med Chem, 2021).
Calls of active or inactive are those of the source. The calls are words filed in the database; no cut-off is given here.

What was measured:
[1] = biological target: Norepinephrine transporter (Rattus norvegicus, UniProt Q9WTR4); experiment: Displacement of [3H]-nisoxetine from NET in Sprague-Dawley rat brain prefrontal cortex incubated for 180 mins by radioligand binding assay; format: tissue-based
[2] = biological target: Sodium-dependent dopamine transporter (Rattus norvegicus, UniProt P23977); experiment: Displacement of [3H]-WIN 3542875 from DAT in Sprague-Dawley rat brain striatum incubated for 120 mins by radioligand binding assay; format: tissue-based
Chain of Sodium-dependent dopamine transporter (P23977 whole entry): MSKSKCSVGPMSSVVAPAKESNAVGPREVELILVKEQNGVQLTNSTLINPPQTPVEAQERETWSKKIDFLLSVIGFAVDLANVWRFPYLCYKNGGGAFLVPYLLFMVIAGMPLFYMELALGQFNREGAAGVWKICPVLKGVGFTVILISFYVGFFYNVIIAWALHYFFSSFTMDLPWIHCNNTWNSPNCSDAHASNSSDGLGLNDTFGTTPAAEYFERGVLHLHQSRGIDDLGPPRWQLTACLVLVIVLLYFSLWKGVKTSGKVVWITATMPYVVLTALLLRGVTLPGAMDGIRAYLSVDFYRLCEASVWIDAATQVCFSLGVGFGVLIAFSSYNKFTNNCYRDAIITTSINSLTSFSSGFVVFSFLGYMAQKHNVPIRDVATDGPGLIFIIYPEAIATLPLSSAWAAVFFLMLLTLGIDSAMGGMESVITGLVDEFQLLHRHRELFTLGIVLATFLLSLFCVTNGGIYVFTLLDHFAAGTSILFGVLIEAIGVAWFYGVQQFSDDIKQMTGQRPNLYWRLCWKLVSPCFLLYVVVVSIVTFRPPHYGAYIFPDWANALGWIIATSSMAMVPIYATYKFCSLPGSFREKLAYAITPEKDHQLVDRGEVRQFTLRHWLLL

[3] = biological target: Sodium-dependent serotonin transporter (Rattus norvegicus, UniProt P31652); experiment: Displacement of [3H]-citalopram from SERT in Sprague-Dawley rat brainstem incubated for 60 mins by radioligand binding assay; format: tissue-based
Chain of Sodium-dependent serotonin transporter (P31652 whole entry): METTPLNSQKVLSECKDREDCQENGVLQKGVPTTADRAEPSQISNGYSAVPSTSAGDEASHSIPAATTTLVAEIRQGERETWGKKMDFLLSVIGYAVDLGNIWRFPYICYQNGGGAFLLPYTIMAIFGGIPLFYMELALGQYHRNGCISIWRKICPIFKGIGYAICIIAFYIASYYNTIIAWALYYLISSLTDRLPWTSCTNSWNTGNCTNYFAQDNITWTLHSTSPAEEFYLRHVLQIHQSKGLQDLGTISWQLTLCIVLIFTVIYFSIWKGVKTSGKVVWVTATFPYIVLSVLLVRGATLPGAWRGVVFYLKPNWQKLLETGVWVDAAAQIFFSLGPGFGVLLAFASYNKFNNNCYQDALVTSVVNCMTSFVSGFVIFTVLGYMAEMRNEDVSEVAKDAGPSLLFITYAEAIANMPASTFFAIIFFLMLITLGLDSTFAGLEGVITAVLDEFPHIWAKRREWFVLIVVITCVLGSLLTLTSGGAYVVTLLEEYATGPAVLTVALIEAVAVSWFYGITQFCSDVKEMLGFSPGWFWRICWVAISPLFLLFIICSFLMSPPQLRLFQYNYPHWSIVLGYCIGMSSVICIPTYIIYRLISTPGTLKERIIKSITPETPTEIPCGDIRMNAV

Rattus norvegicus [4] = species on record: Rattus norvegicus; experiment: Selectivity index, ratio of Ki for displacement of [3H]-citalopram from SERT in Sprague-Dawley rat brainstem to Ki for Displacement of [3H]-nisoxetine from NET in Sprague-Dawley rat brain prefrontal cortex
Rattus norvegicus [5] = species on record: Rattus norvegicus; experiment: Selectivity index, ratio of Ki for Displacement of [3H]-WIN 3542875 from DAT in Sprague-Dawley rat brain striatum to Ki for Displacement of [3H]-nisoxetine from NET in Sprague-Dawley rat brain prefrontal cortex
[6] = biological target: Sodium-dependent noradrenaline transporter (Homo sapiens) (UniProt P23975); experiment: Binding affinity to human NET expressed in HEK293 cells assessed as fluorescence increase at plasma membrane at 1 to 10 nM incubated for 10 mins by laser scanning microscopy; conditions: dose 1-10 nM, DDE = dose-dependent effect
Chain of Sodium-dependent noradrenaline transporter (Homo sapiens) (P23975 whole entry): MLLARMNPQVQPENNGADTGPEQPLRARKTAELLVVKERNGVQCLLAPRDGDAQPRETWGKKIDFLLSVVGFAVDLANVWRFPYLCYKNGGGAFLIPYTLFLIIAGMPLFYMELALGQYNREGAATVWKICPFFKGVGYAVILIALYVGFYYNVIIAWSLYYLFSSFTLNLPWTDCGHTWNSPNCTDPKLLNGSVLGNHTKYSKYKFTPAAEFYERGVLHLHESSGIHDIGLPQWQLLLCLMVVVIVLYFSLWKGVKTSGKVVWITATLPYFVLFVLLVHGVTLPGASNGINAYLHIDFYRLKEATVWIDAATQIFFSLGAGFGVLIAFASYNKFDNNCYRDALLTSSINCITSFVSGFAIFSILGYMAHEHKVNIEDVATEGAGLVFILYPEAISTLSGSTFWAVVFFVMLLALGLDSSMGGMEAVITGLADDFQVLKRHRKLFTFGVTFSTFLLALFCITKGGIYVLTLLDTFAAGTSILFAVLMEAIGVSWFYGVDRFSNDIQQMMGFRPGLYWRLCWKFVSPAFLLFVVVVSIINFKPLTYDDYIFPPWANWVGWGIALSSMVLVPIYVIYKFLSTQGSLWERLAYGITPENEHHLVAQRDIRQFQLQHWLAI

[7] = biological target: Sodium-dependent noradrenaline transporter (Homo sapiens) (UniProt P23975); experiment: Binding affinity to YFP-tagged human NET expressed in HEK293 cells assessed as fluorescence increase at plasma membrane at 10 nM incubated for 1 to 20 mins by laser scanning microscopy; conditions: time 1-20 min, TDE = time-dependent effect
[8] = biological target: Sodium-dependent serotonin transporter (Homo sapiens) (UniProt P31645); experiment: Binding affinity to human SERT expressed in HEK293 cells at 10 nM incubated for 20 mins by laser scanning microscopy; format: cell-based
Chain of Sodium-dependent serotonin transporter (Homo sapiens) (P31645 whole entry, looked up): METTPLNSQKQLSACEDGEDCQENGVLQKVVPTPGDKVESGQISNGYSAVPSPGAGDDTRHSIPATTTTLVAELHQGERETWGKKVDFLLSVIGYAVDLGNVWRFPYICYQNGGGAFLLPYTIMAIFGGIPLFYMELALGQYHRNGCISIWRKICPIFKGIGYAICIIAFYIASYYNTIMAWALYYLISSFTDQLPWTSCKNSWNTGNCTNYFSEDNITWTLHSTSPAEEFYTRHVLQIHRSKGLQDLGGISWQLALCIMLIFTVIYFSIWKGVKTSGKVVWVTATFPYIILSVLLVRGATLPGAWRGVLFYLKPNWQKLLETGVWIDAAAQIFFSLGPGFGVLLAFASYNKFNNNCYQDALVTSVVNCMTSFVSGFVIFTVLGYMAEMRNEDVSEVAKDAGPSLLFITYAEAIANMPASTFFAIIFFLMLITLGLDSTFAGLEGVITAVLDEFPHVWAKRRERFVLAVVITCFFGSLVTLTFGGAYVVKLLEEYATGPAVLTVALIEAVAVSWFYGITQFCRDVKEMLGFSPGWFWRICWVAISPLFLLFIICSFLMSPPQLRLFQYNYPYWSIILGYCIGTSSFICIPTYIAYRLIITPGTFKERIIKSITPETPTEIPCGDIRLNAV

Chain of Norepinephrine transporter (Q9WTR4 whole entry): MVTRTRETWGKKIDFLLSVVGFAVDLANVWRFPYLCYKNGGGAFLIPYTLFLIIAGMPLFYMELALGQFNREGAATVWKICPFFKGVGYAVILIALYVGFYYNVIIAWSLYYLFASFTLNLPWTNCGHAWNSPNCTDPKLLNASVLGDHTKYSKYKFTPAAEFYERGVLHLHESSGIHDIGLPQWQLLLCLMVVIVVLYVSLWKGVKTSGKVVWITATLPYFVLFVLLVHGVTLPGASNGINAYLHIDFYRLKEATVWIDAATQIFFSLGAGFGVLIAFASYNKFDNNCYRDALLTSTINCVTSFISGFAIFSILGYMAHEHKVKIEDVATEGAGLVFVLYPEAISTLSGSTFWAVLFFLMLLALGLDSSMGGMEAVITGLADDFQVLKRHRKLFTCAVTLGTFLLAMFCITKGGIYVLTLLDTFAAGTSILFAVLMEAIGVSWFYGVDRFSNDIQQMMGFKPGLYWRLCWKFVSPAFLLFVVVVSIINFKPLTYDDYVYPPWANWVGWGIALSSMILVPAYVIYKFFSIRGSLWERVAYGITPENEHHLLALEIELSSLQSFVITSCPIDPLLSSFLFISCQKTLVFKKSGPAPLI

SMILES	Ki [1] [nM]	Ki [2] [nM]	Ki [3] [nM]	Ratio Ki (Rattus norvegicus [4])	Ratio Ki (Rattus norvegicus [5])	Activity [6]	Activity [7]	Activity [8]
CCN(CC)c1ccc2c(-c3ccc(S(=O)(=O)NCCCCCC(=O)NCc4ccc5c(c4)C(C)(C)OC5(CCCNC)c4ccccc4)cc3S(=O)(=O)[O-])c3ccc(=[N+](CC)CC)cc-3oc2c1 (stereo not given)	> 10000	964	1140	–	–	–	–	–
CCN(CC)c1ccc2c(-c3ccc(S(=O)(=O)NCCCCCC(=O)NCCNCCCC4(c5ccccc5)OC(C)(C)c5ccccc54)cc3S(=O)(=O)[O-])c3ccc(=[N+](CC)CC)cc-3oc2c1 (stereo not given)	> 10000	4870	> 10000	–	–	–	–	–
CCN(CC)c1ccc2c(-c3ccc(S(=O)(=O)NCCCCCC(=O)NCCN4C5CCC4[C@@H](C(=O)OC)[C@@H](c4ccc(Cl)c(Cl)c4)C5)cc3S(=O)(=O)[O-])c3ccc(=[N+](CC)CC)cc-3oc2c1 (stereo not given in full)	79	17	16	–	–	–	–	–

These reach a lower Ki [1]. Values come first.

Ki [1] [nM]	Ki [2] [nM]	Ki [3] [nM]	Ratio Ki (Rattus norvegicus [4])	Ratio Ki (Rattus norvegicus [5])	Activity [6]	Activity [7]	Activity [8]	SMILES
43	1540	785	18	36	Dde	Tde	Active	CCN(CC)c1ccc2c(-c3ccc(S(=O)(=O)NCCCCCC(=O)NCc4cccc(C(CCNC)Oc5ccccc5OC)c4)cc3S(=O)(=O)[O-])c3ccc(=[N+](CC)CC)cc-3oc2c1 (stereo not given)
4.5	> 10000	795	–	–	–	–	–	CNCCCC1(c2ccccc2)OC(C)(C)c2ccccc21 (stereo not given) [TALOPRAM]
